Results reported in US8822440B2, “Inhibiting cyclin D polypeptides” (Mayo Foundation for Medical Education and Research, priority 2006, dated 2014).
Read-outs that look alike come from different tables or passages of the source.

What was measured:
[1] = Aqueous solubility; format: physicochemical
[2] = Tolerability of kinetin riboside in xenografted BNX mice; format: in vivo
Method: Female nude X-linked immune-deficient (BNX) mice purchased from NCI-Frederick were used for in vivo studies. Animals had access to food and water ad libitum and were handled in accordance with animal care and use guidelines. Eight-week-old mice were inoculated with My5 or 8226 (2×10^7) MM cells subcutaneously (s.c.) in the right flank. Kinetin riboside (pre-dissolved in DMSO at 500 mg/mL and stored at −20° C.) was formulated daily by dropwise dissolution to 3.7 mg/mL in pre-warmed (37° C.) 0.9% saline, 1% β2-hydroxypropylcyclodextrin (Sigma) solution and was administered 1×-5× daily at 85 mg/kg/dose. The first dose daily was given intraperitoneally and remaining doses were given s.c. with increasing dosing intervals (30, 60, 120, 180 minutes). Tumor volumes were measured using vernier calipers and calculated with the formula L×W×H×2/3. P-values were calculated by paired t-test (JMP 6.0, SAS; Cary, N.C.).
The anti-tumor activity of kinetin riboside in vivo was evaluated against My5 and 8226 human myeloma tumors grown as xenografts in nude mice. Drug or vehicle were initially administered once daily with dosing up to100 mg/kg/day, however, no effect on 8226 or My5 (FIG. 14A) tumor growth was observed. […] Xenograft studies were then repeated with 8226 tumors using kinetin riboside 85 mg/kg 4× daily upfront, started when tumors had reached a mean volume of 135 mm^3 (FIG. 14B). […] No effects on neutrophil counts (at 14 days treatment) or on body weight were observed.

[3] = mouse, in vivo
Text: Kinetin riboside toxicity in mice. In vivo toxicity studies of synthetic kinetin riboside were initiated in balc/c mice. […] The actual volume of distribution and the half-life of kinetin riboside in vivo are at present unknown and future schedules of administration may require adjustment to account for these.

[4] = test system: CD138− hematopoietic cells; assay: Unsorted myeloma patient bone marrow, flow cytometry: CD138- non-malignant cells; format: cell-based
Method: Flow cytometry. HMCL were treated as indicated and then washed in cold phosphate-buffered saline (PBS) and resuspended in buffer containing AnnexinV-FITC and propidium iodide (BD Biosciences, San Jose, Calif.) for 15 minutes at room temperature. Cells (10^5) were subsequently diluted and analyzed immediately by flow cytometry (FACScan, BD Biosciences, San Jose, Calif.) using CellQuest software. Patient bone marrow specimens were prepared and analyzed in a similar fashion using AnnexinV-FITC and anti-CD138-PE (BD Biosciences, San Jose, Calif.).
As mouse embryos that lack any D-cyclins eventually die from hematopoietic failure (Kozar et al., Cell, 118, 477-91 (2004)), the bone marrow might be predicted to be one of the most sensitive non-malignant tissue to be affected by drugs targeting cyclin D expression. Unsorted bone marrow samples from myeloma patients were treated with kinetin riboside to assess the relative cytotoxicity of this drug on malignant versus non-malignant marrow cells. Bone marrow samples were first processed to remove non-nucleated red cells and were then treated for 48 hours with kinetin riboside (5 μM).

[5] = test system: cyclin D1, cyclin D2; assay: Immunoblot of cyclin D proteins in purified patient CD138+ myeloma cells; format: cell-based, human
Method: Primary CD138^+ myeloma cell purification. Samples from patients diagnosed by International Myeloma Working Group criteria were included in this study. Bone marrow processing, including red cell lysis using ammonium chloride and CD138^+ plasma cell purification, was performed as described elsewhere (Abraham et al., Blood, 105, 794-803 (2005)). Research BM samples were obtained following informed consent at the time of routine procurement of clinical samples.
Immunoblotting. Cytosolic extracts were prepared from HMCL or purified patient CD138^+ myeloma cells following exposure to kinetin riboside. Cells were washed with cold PBS, resuspended in cold RIPA buffer (5×10^6 cells/100 μL) containing fresh protease and phosphatase inhibitors (Santa Cruz Biotechnology, Santa Cruz, Calif.) and incubated on ice for 30 minutes with gentle mixing. The supernatant was repossessed following high speed centrifugation, and protein concentrations were determined by the Bradford assay. Immunoblot assays were performed as described elsewhere (Krajewski et al., Anal. Biochem., 236:221-228 (1996)). Briefly, equal amounts of protein were separated by SDS-PAGE and transferred to a PVDF nitrocellulose membrane using a semi-dry apparatus. […]

OC[C@H]1O[C@@H](n2cnc3c(NCc4ccco4)ncnc32)[C@H](O)[C@@H]1O [kinetin riboside, N6-Furfuryladenosine]
aqueous solubility [1]: limited aqueous solubility at high concentration | effect on neutrophil counts ([2]; at 14 days treatment): No effects | effect on body weight ([2]; mouse, in vivo): No effects | tolerability of rapidly repeated doses ([2]; up to five per day at 85 mg/kg/dose): well tolerated | final concentration equated from a dose of 25 mg/kg ([3]; BALB/c (printed as "balc/c"), 25 mg/kg): about 60 μM | duration of hypoactivity after treatment ([3]; BALB/c): 15 to 30 min | maximum tolerated single dose (MTDs) ([3]; BALB/c, ip): ~100 mg/kg | maximum tolerated single dose (MTDs) ([3]; BALB/c, iv): about 25 mg/kg | tolerability of multi-dose regimen [3]: well tolerated | toxicity in CD138− bone marrow progenitor compartment [4]: only modest toxicity | effect on non-malignant CD138− marrow cells ([4]; human, 48 h, 5 μM): leaving the majority of non-malignant CD138− marrow cells intact | patient samples with suppression of cyclin D1 or D2 ([5]; 10 μM, 16 hours): 4 of 5 | cyclin D1 and D2 levels in sample E (plasma cell leukemia) ([5]; patient E): unaffected
